The values below come from ChEMBL document CHEMBL1146606, “CoMFA and homology-based models of the glycine binding site of N-methyl-d-aspartate receptor” (J Med Chem, 2003).

SMILES strings stand for the structures. pIC50: −log10 of the molar value.

In experiment [1] the target is Glutamate [NMDA] receptor. The experiment is described as follows: Compound was tested for inhibition of [3H]DCKA binding to N-methyl-D-aspartate glutamate receptor. The class given is protein-complex assay. Set-up: unit not given here.
For experiment [2], the target named is Glutamate [NMDA] receptor. The experiment is described as follows: Inhibition of [3H]DCKA binding to N-methyl-D-aspartate glutamate receptor. The class given is protein-complex assay.

What is called pIC50 is the negative decadic logarithm of the IC50, by convention in mol/L. In experiment [1], `Oc1nc2cc(Cl)cnc2c(O)c1-c1ccsc1` returned a Log 1/IC50 of -0.63. In addition, the pIC50 in experiment [2] was 5.37.

As for `Oc1nc2cc(Cl)cnc2c(O)c1-c1ccccc1`, the Log 1/IC50 in experiment [1] was -0.52. Further, the pIC50 in experiment [2] is 5.48.

As to `O=Nc1c(O)nc2cccc(Cl)c2c1O`, the Log 1/IC50 in experiment [1] is -0.64. This molecule also gave a pIC50 in experiment [2] of 5.36.

Regarding `COc1c(Br)cc2nc(O)c(O)nc2c1[N+](=O)[O-]`, in experiment [1], the “Log 1/IC50” value stood at 1.19. The same molecule had a pIC50 in experiment [2] of 7.19.

In the case of `Oc1nc2cc(Cl)c(Cl)cc2nc1O` [2,3-DIHYDROXY-6,7-DICHLOROQUINOXALINE], the “Log 1/IC50” value in experiment [1] was determined as 0.89. In experiment [2], this molecule gave a pIC50 of 6.89.

On to `O=c1[nH]c2cc(Cl)c(Cl)c([N+](=O)[O-])c2[nH]c1=O` [LICOSTINEL], for which the “Log 1/IC50” value in experiment [1] amounted to 2.23. In experiment [2], this molecule showed a pIC50 of 8.23.
